Measured values as given in patent publication US9708314B2, “Heterocyclic amide compound” (NISSAN CHEMICAL INDUSTRIES, LTD., priority 2013, dated 2017).

Experiments:
Format in all cases: in vivo
Cyperus difformis = test: Test Example 3: herbicidal effect by application to foliage (Wagner pot, water depth 0.1-0.5 cm); details: Nineteenth Table; application to foliage; application herbicide amount 320 g/ha
Summary of the method: (§1)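 Seeds were sown in alluvial soil in Wagner pots, grown for 14 days at 25–30 °C, then sprayed uniformly on foliage with the emulsified compound diluted to a given rate per hectare. Injury was graded three weeks after treatment from 0 (≤5%) to 5 (≥90%).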

[1] = test system: Echinochloa crus-galli var. crus-galli; test: as above; details: Nineteenth Table; application to foliage; application herbicide amount 320 g/ha
Summary of the method: as §1

Leptochloa chinensis = test: as above; details: Nineteenth Table; application to foliage; application herbicide amount 320 g/ha
Summary of the method: as §1

[2] = test system: directly sowed Oryza sativa; test: Test Example 3: effect on crop by application to foliage (Wagner pot, water depth 0.1-0.5 cm); details: Nineteenth Table; application to foliage; application herbicide amount 320 g/ha
Summary of the method: as §1

Abutilon theophrasti = test: Test Example 4: herbicidal effect by application to foliage (diluvial soil, plastic box); details: Application herbicide amount 320 g/ha
Summary of the method: (§2)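 Seeds sown in sterilized diluvial soil, covered ~1.5 cm, grown 14 days in greenhouse at 25° C. to 30° C. Emulsion formulation diluted in water to set rate (g/ha) and sprayed onto stems and leaves. Effect scored visually 3 weeks later on 0–5 scale (5 = ≥90% herbicidal ratio, 0 = ≤5%).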

Alopecurus myosuroides = test: as above; details: Application herbicide amount 320 g/ha
Summary of the method: as §2

Apera spica-venti. = test: as above; details: Application herbicide amount 320 g/ha
Summary of the method: as §2

Avena fatua = test: as above; details: Application herbicide amount 320 g/ha
Summary of the method: as §2

Chenopodium album = test: as above; details: Application herbicide amount 320 g/ha
Summary of the method: as §2

Digitaria ciliaris = test: as above; details: Application herbicide amount 320 g/ha
Summary of the method: as §2

[3] = test system: Echinochloa crus-galli var. crus-galli; test: as above; details: Application herbicide amount 320 g/ha
Summary of the method: as §2

Galium spurium = test: as above; details: Application herbicide amount 320 g/ha
Summary of the method: as §2

Lolium multiflorum Lam. = test: as above; details: Application herbicide amount 320 g/ha
Summary of the method: as §2

Setaria viridis = test: as above; details: Application herbicide amount 320 g/ha
Summary of the method: as §2

Veronica persica = test: as above; details: Application herbicide amount 320 g/ha
Summary of the method: as §2

[4] = test system: Beta vulgaris ssp. vulgaris; test: Test Example 4: effect on crop by application to foliage (diluvial soil, plastic box); details: Application herbicide amount 320 g/ha; effect on crop
Summary of the method: as §2

Brassica campestris L. = test: as above; details: Application herbicide amount 320 g/ha; effect on crop
Summary of the method: as §2

Glycine max = test: as above; details: Application herbicide amount 320 g/ha; effect on crop
Summary of the method: as §2

Triticum aestivum = test: as above; details: Application herbicide amount 320 g/ha; effect on crop
Summary of the method: as §2

Zea mays = test: as above; details: Application herbicide amount 320 g/ha; effect on crop
Summary of the method: as §2

[5] = test system: directly sowed Oryza sativa; test: as above; details: Application herbicide amount 320 g/ha; effect on crop
Summary of the method: as §2

## Cc1nnc(NC(=O)c2ccc(C(F)(F)F)n3c(-c4cc5ccccc5n4C)nnc23)o1 [1-059]
Cyperus difformis
  E (herbicidal effect grade): 3 (Herbicidal ratio of 40% or more and less than 70%)
[1]
  H (herbicidal effect grade): 0 (Herbicidal ratio of 5% or less (almost no effect))
Leptochloa chinensis
  D (herbicidal effect grade): 3 (Herbicidal ratio of 40% or more and less than 70%)
[2]
  b (effect on crop grade): 0 (Herbicidal ratio of 5% or less (almost no effect))
Abutilon theophrasti
  M: 4 (Herbicidal ratio of 70% or more and less than 90%)
Alopecurus myosuroides
  J: 0 (Herbicidal ratio of 5% or less (almost no effect))
Apera spica-venti.
  L: 0 (Herbicidal ratio of 5% or less (almost no effect))
Avena fatua
  I: 0 (Herbicidal ratio of 5% or less (almost no effect))
Chenopodium album
  O: 5 (Herbicidal ratio of 90% or more (almost completely withered))
Digitaria ciliaris
  F: 0 (Herbicidal ratio of 5% or less (almost no effect))
[3]
  H: 2 (Herbicidal ratio of 20% or more and less than 40%)
Galium spurium
  Q: 0 (Herbicidal ratio of 5% or less (almost no effect))
Lolium multiflorum Lam.
  K: 0 (Herbicidal ratio of 5% or less (almost no effect))
Setaria viridis
  G: 0 (Herbicidal ratio of 5% or less (almost no effect))
Veronica persica
  R: 2 (Herbicidal ratio of 20% or more and less than 40%)
[4]
  f: 0 (Herbicidal ratio of 5% or less (almost no effect))
Brassica campestris L.
  g: 0 (Herbicidal ratio of 5% or less (almost no effect))
Glycine max
  c: 0 (Herbicidal ratio of 5% or less (almost no effect))
Triticum aestivum
  e: 0 (Herbicidal ratio of 5% or less (almost no effect))
Zea mays
  b: 0 (Herbicidal ratio of 5% or less (almost no effect))
[5]
  d: 0 (Herbicidal ratio of 5% or less (almost no effect))

## COCCOC(=O)Cc1nnc2c(C(=O)Nc3nnc(C)o3)ccc(C(F)(F)F)n12 [1-060]
Cyperus difformis
  E (herbicidal effect grade): 3 (Herbicidal ratio of 40% or more and less than 70%)
[1]
  H (herbicidal effect grade): 5 (Herbicidal ratio of 90% or more (almost completely withered))
Leptochloa chinensis
  D (herbicidal effect grade): 4 (Herbicidal ratio of 70% or more and less than 90%)
[2]
  b (effect on crop grade): 2 (Herbicidal ratio of 20% or more and less than 40%)
Abutilon theophrasti
  M: 4 (Herbicidal ratio of 70% or more and less than 90%)
Alopecurus myosuroides
  J: 2 (Herbicidal ratio of 20% or more and less than 40%)
Apera spica-venti.
  L: 1 (Herbicidal ratio of 5% or more and less than 20%)
Avena fatua
  I: 3 (Herbicidal ratio of 40% or more and less than 70%)
Chenopodium album
  O: 5 (Herbicidal ratio of 90% or more (almost completely withered))
Digitaria ciliaris
  F: 5 (Herbicidal ratio of 90% or more (almost completely withered))
[3]
  H: 5 (Herbicidal ratio of 90% or more (almost completely withered))
Galium spurium
  Q: 3 (Herbicidal ratio of 40% or more and less than 70%)
Lolium multiflorum Lam.
  K: 2 (Herbicidal ratio of 20% or more and less than 40%)
Setaria viridis
  G: 3 (Herbicidal ratio of 40% or more and less than 70%)
Veronica persica
  R: 5 (Herbicidal ratio of 90% or more (almost completely withered))
[4]
  f: 5 (Herbicidal ratio of 90% or more (almost completely withered))
Brassica campestris L.
  g: 4 (Herbicidal ratio of 70% or more and less than 90%)
Glycine max
  c: 0 (Herbicidal ratio of 5% or less (almost no effect))
Triticum aestivum
  e: 3 (Herbicidal ratio of 40% or more and less than 70%)
Zea mays
  b: 3 (Herbicidal ratio of 40% or more and less than 70%)
[5]
  d: 4 (Herbicidal ratio of 70% or more and less than 90%)

## CC(=O)OCc1nnc2c(C(=O)Nc3nnc(C)o3)ccc(C(F)(F)F)n12 [1-062]
Cyperus difformis
  E (herbicidal effect grade): 4 (Herbicidal ratio of 70% or more and less than 90%)
[1]
  H (herbicidal effect grade): 5 (Herbicidal ratio of 90% or more (almost completely withered))
Leptochloa chinensis
  D (herbicidal effect grade): 4 (Herbicidal ratio of 70% or more and less than 90%)
[2]
  b (effect on crop grade): 2 (Herbicidal ratio of 20% or more and less than 40%)
Abutilon theophrasti
  M: 5 (Herbicidal ratio of 90% or more (almost completely withered))
Alopecurus myosuroides
  J: 1 (Herbicidal ratio of 5% or more and less than 20%)
Apera spica-venti.
  L: 1 (Herbicidal ratio of 5% or more and less than 20%)
Avena fatua
  I: 3 (Herbicidal ratio of 40% or more and less than 70%)
Chenopodium album
  O: 5 (Herbicidal ratio of 90% or more (almost completely withered))
Digitaria ciliaris
  F: 5 (Herbicidal ratio of 90% or more (almost completely withered))
[3]
  H: 5 (Herbicidal ratio of 90% or more (almost completely withered))
Galium spurium
  Q: 4 (Herbicidal ratio of 70% or more and less than 90%)
Lolium multiflorum Lam.
  K: 0 (Herbicidal ratio of 5% or less (almost no effect))
Setaria viridis
  G: 3 (Herbicidal ratio of 40% or more and less than 70%)
Veronica persica
  R: 4 (Herbicidal ratio of 70% or more and less than 90%)
[4]
  f: 4 (Herbicidal ratio of 70% or more and less than 90%)
Brassica campestris L.
  g: 4 (Herbicidal ratio of 70% or more and less than 90%)
Glycine max
  c: 0 (Herbicidal ratio of 5% or less (almost no effect))
Triticum aestivum
  e: 2 (Herbicidal ratio of 20% or more and less than 40%)
Zea mays
  b: 3 (Herbicidal ratio of 40% or more and less than 70%)
[5]
  d: 3 (Herbicidal ratio of 40% or more and less than 70%)

## COCCSc1nnc2c(C(=O)Nc3nnc(C)o3)ccc(C(F)(F)F)n12 [1-063]
Cyperus difformis
  E (herbicidal effect grade): 5 (Herbicidal ratio of 90% or more (almost completely withered))
[1]
  H (herbicidal effect grade): 5 (Herbicidal ratio of 90% or more (almost completely withered))
Leptochloa chinensis
  D (herbicidal effect grade): 5 (Herbicidal ratio of 90% or more (almost completely withered))
[2]
  b (effect on crop grade): 2 (Herbicidal ratio of 20% or more and less than 40%)
Abutilon theophrasti
  M: 4 (Herbicidal ratio of 70% or more and less than 90%)
Alopecurus myosuroides
  J: 2 (Herbicidal ratio of 20% or more and less than 40%)
Apera spica-venti.
  L: 3 (Herbicidal ratio of 40% or more and less than 70%)
Avena fatua
  I: 2 (Herbicidal ratio of 20% or more and less than 40%)
Chenopodium album
  O: 5 (Herbicidal ratio of 90% or more (almost completely withered))
Digitaria ciliaris
  F: 5 (Herbicidal ratio of 90% or more (almost completely withered))
[3]
  H: 5 (Herbicidal ratio of 90% or more (almost completely withered))
Galium spurium
  Q: 3 (Herbicidal ratio of 40% or more and less than 70%)
Lolium multiflorum Lam.
  K: 2 (Herbicidal ratio of 20% or more and less than 40%)
Setaria viridis
  G: 5 (Herbicidal ratio of 90% or more (almost completely withered))
Veronica persica
  R: 5 (Herbicidal ratio of 90% or more (almost completely withered))
[4]
  f: 5 (Herbicidal ratio of 90% or more (almost completely withered))
Brassica campestris L.
  g: 3 (Herbicidal ratio of 40% or more and less than 70%)
Glycine max
  c: 3 (Herbicidal ratio of 40% or more and less than 70%)
Triticum aestivum
  e: 2 (Herbicidal ratio of 20% or more and less than 40%)
Zea mays
  b: 0 (Herbicidal ratio of 5% or less (almost no effect))
[5]
  d: 4 (Herbicidal ratio of 70% or more and less than 90%)

## C=CCSc1nnc2c(C(=O)Nc3nnc(C)o3)ccc(C(F)(F)F)n12 [1-064]
Cyperus difformis
  E (herbicidal effect grade): 4 (Herbicidal ratio of 70% or more and less than 90%)
[1]
  H (herbicidal effect grade): 5 (Herbicidal ratio of 90% or more (almost completely withered))
Leptochloa chinensis
  D (herbicidal effect grade): 4 (Herbicidal ratio of 70% or more and less than 90%)
[2]
  b (effect on crop grade): 2 (Herbicidal ratio of 20% or more and less than 40%)
Abutilon theophrasti
  M: 3 (Herbicidal ratio of 40% or more and less than 70%)
Alopecurus myosuroides
  J: 1 (Herbicidal ratio of 5% or more and less than 20%)
Apera spica-venti.
  L: 1 (Herbicidal ratio of 5% or more and less than 20%)
Avena fatua
  I: 1 (Herbicidal ratio of 5% or more and less than 20%)
Digitaria ciliaris
  F: 5 (Herbicidal ratio of 90% or more (almost completely withered))
[3]
  H: 5 (Herbicidal ratio of 90% or more (almost completely withered))
Galium spurium
  Q: 3 (Herbicidal ratio of 40% or more and less than 70%)
Lolium multiflorum Lam.
  K: 1 (Herbicidal ratio of 5% or more and less than 20%)
Setaria viridis
  G: 4 (Herbicidal ratio of 70% or more and less than 90%)
Veronica persica
  R: 3 (Herbicidal ratio of 40% or more and less than 70%)
[4]
  f: 4 (Herbicidal ratio of 70% or more and less than 90%)
Brassica campestris L.
  g: 3 (Herbicidal ratio of 40% or more and less than 70%)
Glycine max
  c: 0 (Herbicidal ratio of 5% or less (almost no effect))
Triticum aestivum
  e: 0 (Herbicidal ratio of 5% or less (almost no effect))
Zea mays
  b: 0 (Herbicidal ratio of 5% or less (almost no effect))
[5]
  d: 3 (Herbicidal ratio of 40% or more and less than 70%)
